The values that follow come from patent US7648993B2, “Methods of treating disorders with Group I mGluR antagonists” (Brown University, priority 2001, dated 2010).

“Also recorded” adds a separate entry of the source.

For assay [1], the system named is hippocampal area CA1 slices. Nature of the assay: Field potential (FP) recordings in area CA1 of rat hippocampal slices (DHPG-LTD). The format is cell-based, Long Evans rats. The procedure:
All animals were used in accordance with procedures approved by the Brown University Institutional Animal Care and Use Committee. Hippocampal slices were prepared from postnatal day 21-30 (P21-30) Long Evans rats (Charles River, Cambridge, Mass.) and mGluR5 knockout mice (Lu et al. 1997) as described previously (Huber et al. 2000). For most experiments, CA3 was removed immediately after sectioning. Slices recovered for 1-2 h at room temperature (rats) or at 30° C. (mice) in artificial cerebrospinal fluid (ACSF) containing (in mM) 124 NaCl, 5 KCl, 1.25 NaH2PO4, 26 NaHCO3, 1 MgCl2, 2 CaCl2, and 10 dextrose, saturated with 95% O2-5% CO2. For recording, slices were placed in a submersion recording chamber and perfused with 30° C. ACSF at a rate of 2 ml/min.
Synaptically evoked field potentials (FPs) were recorded from area CA1 as described previously. Sharp microelectrode and whole cell voltage-clamp recordings were made using Axoclamp 2B and Axopatch 1D amplifiers (Axon Instruments), respectively. Sharp electrodes (80-120 M Ω) were filled with 3 M K-acetate and 10 mM KCl; patch pipettes (3-7 M Ω) were filled with (in mM) 134 K-gluconate, 6 KCl, 4 NaCl, 10 HEPES, 0.2 EGTA, 4 MgATP, 0.3 TrisGTP, and 14 phosphocreatine. The pH of the internal solution was adjusted to 7.25 with KOH, and the osmolarity was adjusted to 300 mOsm with H2O or sucrose. Only experiments in which there was less than a 15% change in series resistance were included in the analysis. Waveforms were filtered at 2 kHz and acquired and digitized at 10 kHz on a PC using Experimenter's Workbench (DataWave Systems, Boulder, Colo.).
Baseline responses were collected every 10-30 s using a stimulation intensity (10-30 μA; 0.2 ms) yielding 50-60% of the maximal response. Experiments in which there was a>5% drift in the response magnitude during the 20-min baseline period before DHPG or LFS were excluded from further analysis. All experiments with mGluR5 KO mice used wildtype littermates as controls and were performed blind to the genotype, later determined by Therion (Troy, N.Y.). LFS consisted of 900 pulses at 1 Hz. PP-LFS consisted of 900 pairs of stimuli (50-ms interstimulus interval) delivered at 1 Hz. In saturation experiments, stimulus duration was increased from 0.2 to 0.4 ms during PP-LFS.
The group data were analyzed as follows: 1) the initial slopes of the FPs and excitatory postsynaptic potentials (EPSPs), or the amplitude of the excitatory postsynaptic currents (EPSCs), for each experiment were expressed as percentages of the preconditioning or DHPG baseline average, 2) the time scale in each experiment was converted to time from the onset of conditioning or DHPG, and 3) the time-matched, normalized data were averaged across experiments and expressed in the text and figures as the means ±SE. Significant differences between groups were determined using an independent t-test or ANOVA performed on a 5-min average taken 1 h after LFS or DHPG application.
R,S-DHPG and D-2-amino-5-phosphonopentanoic acid (D-AP5) was purchased from Tocris (St. Louis, Mo.); all other chemicals were from Sigma Chemical (St Louis, Mo.). DHPG was prepared as a 100 times stock in H2O, aliquoted and stored at −20° C. Fresh stocks were made once a week. A 10 times stock of AP5 was prepared in ACSF and stored at 4° C. These stocks were diluted in ACSF to achieve their final concentrations. Picrotoxin was dissolved directly into ACSF immediately before use.

Assay [2] relates to cultured hippocampal neurons. Nature of the assay: Acid strip immunocytochemistry for internalized GluR1 (AMPARs). The format is cell-based, rat. The settings on record: for effect on DHPG/mGluR-stimulated internalization of GluR1 (in words): APV 50 μM, cycloheximide 60 μM applied 15 min before DHPG; for effect on basal levels of internalized puncta (in words): without DHPG.
Assay [3] has as its system high-density cultured hippocampal neurons. Nature of the assay: Biotinylation and quantitative western blot of surface expressed receptors. It counts as cell-based, rat. The settings on record: DHPG 50 μM, 5 min; 60 minutes later; cycloheximide 60 μM with DHPG where named. As to the method:
To confirm the effect of mGluR activation on surface AMPARs using an alternative approach, we treated high-density cultures with DHPG (50 μM, 5 min) or control medium and surface receptors were labeled with biotin 60 minutes later. Biotinylated receptors were precipitated and the ratio of surface to total GluR1 was determined by quantitative western blotting. This biochemical analysis confirmed that surface AMPARs are reduced by DHPG treatment to only 56.8±4.0% of the value in control cultures (n=4 in each treatment group; p<0.01; FIG. 6).
Biotinylation experiments were performed as previously described^35. Briefly, 2-week-old high-density cultured hippocampal neurons were treated with either control medium or 50 μM DHPG for 5 min, and incubated for 1 h at 37° C. to allow endocytosis to occur. The sister cultures were placed on ice to stop endocytosis and washed two times with ice-cold artificial cerebrospinal fluid (ACSF) containing 124 mM NaCl, 5 mM KCl, 1.25 mM NaH2PO4, 26 mM NaHCO3, 0.8 mM MgCl2, 1.8 mM CaCl2, 10 mM dextrose, and saturated with 95% O2, 5% CO2. Cultures were then incubated with ACSF containing 1 mg/ml Sulfo-NHS-LC-Biotin (Pierce Chemical Company, Rockford, Ill.) for 30 min on ice. Cultures were rinsed in TBS to quench the biotin reaction. […] Quantitative western blots were performed on both total and biotinylated (surface) proteins using anti-GluR1 C-terminal (1:1000, Upstate Biotechnology, Lake Placid, N.Y.) and anti-NR1 N-terminal antibodies (1:1000, Chemicon). […] Digital images, produced by densitometric scans of autoradiographs on a ScanJet IIcx (Hewlett Packard, Palo Alto, Calif.) with DeskScan II software (Hewlett Packard), were quantified using NIH Image 1.60 software. The surface/total ratio was calculated for each culture, and treatment groups were compared using a paired t-test. […] For display purposes, the data are expressed as the ratio of DHPG to control values.
Background: Immunoblotting shows a protein as a band on a membrane.

For assay [4], the system named is cultured hippocampal neurons. Nature of the assay: Immunocytochemical localization of surface synaptic receptors (GluR2, GluR1, NR1, GABAAβ1). The settings on record: for GluR1-positive synapses: cycloheximide 60 μM applied 15 min before DHPG where named. The format is cell-based, rat. The text has this:
We next determined if the DHPG-induced increase in internalized AMPARs is accompanied by a net decrease in surface-expressed receptor clusters at synapses. At various intervals after DHPG washout, cells were fixed and surface GluR2 or GluR1 was labeled with N-terminal antibodies without permeabilization. The cultures were then permeabilized, and synapses were labeled using an antibody against the presynaptic marker synapsin I or synaptophysin coupled to the appropriate secondary antibody. Under control conditions, most synapses were immunoreactive for AMPAR clusters (GluR2, 80.6±9.0%; n=10 cells, 200 synapses, FIGS. 5A-D; GluR1, 72.5±4.7%; n=15 cells, 225 synapses; FIGS. 5E and F).
Following experimental treatment, low-density cultures were fixed in 4% paraformaldehyde with 4% sucrose for 5 min. Cultures were rinsed in PBS and then blocked in PBS with 20% fetal bovine serum for 1 h. Cultures were stained with N-terminal receptor antibodies overnight at 4° C. (GluR2, 1:100, Chemicon, Ternecula, California; GluR1, 1:100, gift of R. Huganir; NR1, 1:500, Chemicon MAB363; GABAAβ1, 1:100 Santa Cruz Biologicals, Santa Cruz, Calif.). Cultures were then rinsed in blocking buffer containing 0.1% Triton-X for 20 min and exposed to antibodies directed against presynaptic proteins (synapsin 1, 1:1000, Chemicon; synaptophysin, 1:100, Boehringer Manheim, Irvine, Calif.) for 1 h at room temperature. Cultures were then rinsed and exposed to the appropriate fluorescent secondary antibodies (Jackson Immunoresearch, West Grove, Pa.).
Microscopy was performed with a Nikon E800 microscope using a 60×1.4 NA objective (Melville, N.Y.). Fluorescence images were collected with a Sensys cooled CCD camera and analyzed using IP-Labs software. Additional images were collected with a Olympus Flowview confocal microscope with a 60×1.2 NA objective. All analyses were performed blind to the stimulation history of the culture. Microscopic fields had 1-3 neurons displaying smooth soma and generally healthy morphology with multiple distinct processes. Immunofluorescence was analyzed along the proximal 50 μm of 3 or more dendrites per neuron. Immunoreactive puncta were defined as discrete points along the dendrite with fluorescence intensity twice the background staining of the neuron. Five cells were analyzed per culture and 3-6 cultures were analyzed per condition. Separate controls were performed with each experiment and a Student's t-test was used to determine statistical significance. Data are expressed as puncta per 10 μm of dendrite unless stated otherwise.

On to `N[C@H](CCCP(=O)(O)O)C(=O)O` [AP5, D-2-amino-5-phosphonopentanoic acid], for which the “effect on the magnitude of DHPG-LTD (in words)” value in assay [1] (AP5 50 μM) was “no effect”. The “magnitude of DHPG-LTD in the presence of AP5” value in assay [1] (AP5 50 μM preincubation, DHPG 50 μM, 5 min) was 83±3%. The “effect on DHPG/mGluR-stimulated internalization of GluR1 (in words)” value in assay [2] (LY344545 100 μM) was “no effect”.
For `N[C@](CC1c2ccccc2Oc2ccccc21)(C(=O)O)[C@@H]1C[C@H]1C(=O)O` [LY344545], the “internalized GluR1 puncta, LY344545 experiment” value in assay [2] (DHPG 50 μM, 5 min, LY344545 100 μM) is 0.32±0.08 puncta per 10 μm of dendrite. For the same compound, in assay [2] (LY344545 100 μM), the “effect on DHPG/mGluR-stimulated internalization of GluR1 (in words)” value is reported as “completely blocked”.
Take `COc1ccc(C[C@H]2NC[C@H](O)[C@H]2OC(C)=O)cc1` [anisomycin]: the “effect on DHPG/mGluR-stimulated internalization of GluR1 (in words)” value in assay [2] (LY344545 100 μM) is listed as “blocked”. For the same compound, the “effect on basal levels of internalized puncta (in words)” value in assay [2] was “Neither cycloheximide nor anisomycin had any significant effect”.
As to `C[C@@H]1C[C@@H]([C@H](O)CC2CC(=O)NC(=O)C2)C(=O)[C@@H](C)C1` [cycloheximide], in assay [3], the “surface NR1 (surface/total), % of the value in control cultures” value came out at 79.1±14.5%. The “effect on DHPG/mGluR-stimulated internalization of GluR1 (in words)” value in assay [2] (LY344545 100 μM) was “significantly inhibited; also recorded: decreases”. Further, in assay [2] (measured at 60 minutes, chx 60 μM applied 15 min before DHPG), the “internalized GluR1 puncta, cycloheximide experiment” value is 0.76±0.09 puncta per 10 μm of dendrite. Moreover, the “effect on basal levels of internalized puncta (in words)” value in assay [2] is on record as “Neither cycloheximide nor anisomycin had any significant effect”. For the same compound, the GluR1-positive synapses came to 37.8±3.8% in assay [4] (15 min after DHPG) and 55.7±5.1% in assay [4] (60 min after DHPG). Also, the NR1-positive synapses in assay [4] (60 minutes after DHPG treatment, with cycloheximide where named) is listed as 42+5%.
Regarding `N[C@@H](Cn1oc(=O)[nH]c1=O)C(=O)O` [quisqualic acid], in assay [1] (quisqualic acid 5 μM, 5 min), the “LTD of FP, % of baseline” value is recorded as 81±2%. In addition, the “LTD induced with quisqualic acid in the presence of AP5” value in assay [1] (quisqualic acid 5 μM, with AP5) turned out to be 79±2%.
